Experiments:
[1] = mn = molality of the nth substance listed, in mol/kg; details: 100 kPa, Liquid, Capillary tube (Ostwald / Ubbelohde) method, m2 = 0
[2] = 101.33 kPa, Liquid; for electrical conductivity: Direct current cell with electrodes; for mass density: Vibrating tube method

O [water] + CCCCn1cc[n+](C)c1.NCCS(=O)(=O)[O-]
[1]
Details	viscosity [mPa·s]
293.15 K	1.003
298.15 K	0.89
303.15 K	0.797
308.15 K	0.719
313.15 K	0.653

CCCCn1cc[n+](C)c1.NCCS(=O)(=O)[O-] [1-butyl-3-methylimidazolium taurate]
[2], Cone and plate viscometry
Details	viscosity [mPa·s]
293.15 K	1761.4
298.15 K	1169.2
303.15 K	799.87
308.15 K	561.88
313.15 K	405.34
318.15 K	298.26
323.15 K	224.97

[2]
Details	electrical conductivity [S/m]	mass density [kg/m3]
293.15 K	0.0098	1195.4
298.15 K	0.0161	1192.1
303.15 K	0.0257	1188.77
308.15 K	0.0356	1185.4
313.15 K	0.0518	1182.02
318.15 K	0.0697	1178.53
323.15 K	0.0922	1175.06

O [water]
[2], Capillary tube (Ostwald / Ubbelohde) method
Details	viscosity [mPa·s]
293.15 K	1.003
298.15 K	0.89
303.15 K	0.797
308.15 K	0.719
313.15 K	0.653

— the NIST ThermoML archive (doi:10.1016/j.jct.2015.10.026)
